Assay results published in PMC6470603, “Design and Synthesis of Matrine Derivatives as Novel Anti-Pulmonary Fibrotic Agents via Repression of the TGFβ/Smad Pathway” (Molecules, 2019).

What was measured:
[1] = Cytotoxicity assay (CCK-8); settings: human, MRC-5 cells (human fetal lung fibroblasts)
Procedure: (§4) Cytotoxicity of all compounds were also determined against MRC-5 cells, so as to calculate selectivity index (SI, CC50/IC50).
(§5) MRC-5 cells in passage between 21 to 26 were used for experiments.
(§6) MRC-5 cells were incubated with different concentrations of compounds for 48 h, and then 10 μL of CCK-8 solution were added to each well. The cells were incubated at 37 °C for another 3 h before determining the OD values at 492 nm. DMSO at 0.1% v/v final concentration was used to solubilize the test compounds, except for compound 3b, 3c, and 3e, where 1% v/v DMSO was used to ensure complete solubilization.

[2] = system: Collagen type III alpha-1 chain (COL3A1) in MRC-5 cells; experiment: Immunofluorescence assay, COL3A1 expression; format: cell-based, human; settings: 10 μM, 48 h, 10 ng/mL TGF-β1, mean fluorescence intensity
Procedure: (§1) Due to the significance of collagen in IPF pathogenesis, we first evaluated the inhibitory effect of key compound 3f against collagen accumulation. Immunofluorescence staining was employed to investigate collagen protein expression.
(§2) MRC-5 cells were seeded on 0.2% gelatin-coated glass coverslips and treated with or without 10 ng/mL TGF-β1 in the presence of vehicle or 10 μM 3f for 48 h. The cells were washed with PBS and fixed in freshly prepared 4% paraformaldehyde (PFA) at room temperature for 10 min. The cells were then permeabilized with 0.25% Triton X-100 for 10 min before 30 min of blocking by PBS solution supplemented with 1% BSA and 22.5 mg/mL glycine (the permeabilization was omitted for S100A4 and TGFβRI staining). The cells were incubated with primary antibody overnight at 4 °C and labeled with AlexaFluor 488-conjugated or Dylight 488-conjugated secondary antibody. […] The mean fluorescence intensity (MFI) of each photo was calculated by ImageJ. […]

[3] = system: fibronectin in MRC-5 cells; experiment: Immunofluorescence assay, fibronectin expression; format: cell-based, human; settings: 10 μM, 48 h, 10 ng/mL TGF-β1, mean fluorescence intensity
Procedure: Next, we evaluated the inhibitory effect of 3f against fibronectin expression. Fibronectin is another major constituent of ECM and plays a critical role in fibrogenesis by promoting the migration, proliferation, and adhesion of fibroblasts.
as §2

MRC-5 fibroblasts = experiment: Scratch (wound healing) assay, TGF-β1-induced fibroblast migration; format: cell-based, human; settings: 10 μM, 10 ng/mL TGF-β1, 24 h (TGF-β1 alone 85.0%)
Procedure: Fibroblast migration is the key event in pulmonary fibrogenesis. […] Inhibition of lung fibroblasts migration is a promising potential therapeutic target for IPF. We performed wound healing assay to investigate the inhibitory effect of 3f and matrine against fibroblast migration (Figure 7).
MRC-5 cells were seeded on 6-well plates and allowed to reach confluence for 48 h. The cell monolayer was gently scratched with a 1 mL pipette tip across the center of the well. After scratching, the cells were washed twice with medium to remove detached cells. The cells were then treated with or without 10 ng/mL TGF-β1 in the presence of vehicle or 10 μM 3f for 24 h. The gap area in wound region was quantitatively evaluated using ImageJ [30] and MRI wound healing tool plugin [31].

[4] = system: Collagen type I alpha-1 chain (COL1A1) in MRC-5 cells; experiment: Immunofluorescence assay, COL1A1 expression; format: cell-based, human; settings: 10 μM, 48 h, 10 ng/mL TGF-β1, mean fluorescence intensity
Procedure: as §1, §2

[5] = system: TGF-β receptor type I (TGFβRI) in MRC-5 cells; experiment: Immunofluorescence assay, TGFβRI expression; format: cell-based, human; settings: 10 μM, 48 h, 10 ng/mL TGF-β1, mean fluorescence intensity
From the text: Another emerging effect of Smad which acts as the amplifier of TGF-β signaling also contribute to fibrotic diseases. The nuclear translocation of Smad3 leads to the activation of the miR-433 promotor region. miR-433 promotes the decrease of antizyme inhibitor I (Azin1) and eventually results in depletion of polyamine, which causes the upregulation of expression level of TGF-β receptor type I (TGFβRI) and TGF-β1. This series of signaling creates a positive-feedback loop which amplify the TGFβ signaling.
as §2

Smad2/3 in MRC-5 cells = experiment: Immunofluorescence assay, cellular localization of Smad2/3; format: cell-based, human; settings: 10 μM, 48 h, 10 ng/mL TGF-β1
From the text: Small mothers against decapentaplegic homologs (Smad) are key mediators and regulators of TGFβ signaling. The binding of TGF-β1 to TGFβ receptors leads to the phosphorylation of Smad2/3 complex, which then translocate into nucleus to enhance gene transcription by cooperating with DNA transcription factors. Inhibition of the nuclear translocation of Smad2/3 could attenuate the transcription of profibrotic genes such as collagens and α-SMA. Therefore, we investigated the cellular localization of Smad2/3 by immunofluorescence assay. As depicted in Figure 6A, Smad2/3 predominately localize in cytoplasm under normal conditions, but translocate into nucleus upon TGF-β1 stimulation.
as §2, with “staining).” for “staining). The cells were incubated with primary antibody overnight at 4 °C and labeled with AlexaFluor 488-conjugated or Dylight 488-conjugated secondary antibody.”

[6] = system: alpha-smooth muscle actin (α-SMA) in MRC-5 cells; experiment: Immunofluorescence assay, α-SMA expression (fibroblast-to-myofibroblast transition); format: cell-based, human; settings: 10 μM, 48 h, 10 ng/mL TGF-β1, mean fluorescence intensity
From the text: (§3) Myofibroblasts, a further differentiated subset of fibroblasts, are primary effector cells for collagen synthesis in fibrotic disorders. Inhibition of fibroblast differentiation is an important therapeutic target for IPF treatment. To examine whether 3f could inhibit TGF-β1-induced fibroblast-to-myofibroblast transition, we investigated the expression level of alpha-smooth muscle actin (α-SMA) and S100A4, the key markers which distinguish myofibroblasts from their precursor fibroblasts. We observed dramatic upregulation of myofibroblast markers in response to TGF-β1 stimulation (774.9% and 537.7% for α-SMA and S100A4, respectively), characterizing a strong expression of myofibroblast phenotype.
as §2, with “staining).” for “staining). The cells were incubated with primary antibody overnight at 4 °C and labeled with AlexaFluor 488-conjugated or Dylight 488-conjugated secondary antibody.”

S100A4 in MRC-5 cells = experiment: Immunofluorescence assay, S100A4 expression (fibroblast-to-myofibroblast transition); format: cell-based, human; settings: 10 μM, 48 h, 10 ng/mL TGF-β1, mean fluorescence intensity
From the text: as §3
as §2, with “staining).” for “staining). The cells were incubated with primary antibody overnight at 4 °C and labeled with AlexaFluor 488-conjugated or Dylight 488-conjugated secondary antibody.”

[7] = system: TGF-β1 induced total collagen accumulation in MRC-5 cells; experiment: Sircol collagen assay: inhibition of TGF-β1-induced total collagen accumulation; format: cell-based, human; settings: for IC50: Homo sapiens, MRC5, 10 ng/mL TGF-β1, 48 h, Sircol collagen assay; for SI, selectivity index (SI = CC50/IC50): MRC-5 cells
Procedure: Higher SI values indicates better safety profile.
MRC-5 cells in 1 × 10^5 cells/mL density were seeded in TC treated 96-well plates and allowed to reach confluence for 48 h. The cells were then starved using MEM-NEAA containing 0.2% BSA for 24 h. After starvation, the medium was changed to MEM-NEAA supplemented with 0.2% BSA, 100 μM L-Proline, 100 μM Ascorbic acid, with or without 10 ng/mL TGF-β1 (Peprotech) in the presence of vehicle or different concentrations of compounds. After 48 h incubation, the MRC-5 cells were washed with phosphate buffered saline (PBS) and fixed in −20 °C precooled methanol for 10 min. The cells were than washed with PBS before incubation in 0.1% PSR staining solution (0.1% Sirus red in saturated water solution of picric acid) for 1 h. The staining solution was then removed and the cells were washed with 0.1% acetic acid for three times. 200 μL of 0.1 mol/L sodium hydroxide solution were added to each well and the plates were placed on a rocking platform for 1 h. The optical density (OD) values at 550 nm were determined with an Infinite 2000 spectrophotometer.

in vitro = settings: human
Procedure: as §4, §5, §6

Row | Compound | CC50 at 48 h [1] [µM] | decrease in expression level of COL3A1 relative to TGF-β1 stimulation group [2] [%] | reduction of expression level of fibronectin comparing to TGF-β1 stimulation group [3] [%] | closure of wound area over 24 h period (MRC-5 fibroblasts) [%] | decrease in expression level of COL1A1 relative to TGF-β1 stimulation group [4] [%] | reduction of TGF-β1-induced upregulation of TGFβRI expression level [5] [%] | effect on cytoplasm-to-nuclear translocation of Smad2/3 (Smad2/3 in MRC-5 cells) | downregulation in expression level of α-SMA compared to TGF-β1 stimulation group [6] [%] | downregulation in expression level of S100A4 compared to TGF-β1 stimulation group (S100A4 in MRC-5 cells) [%] | IC50 [7] [µM] | SI, selectivity index (SI = CC50/IC50) [7] | CC50 at 48 h (in vitro) [µM]
1 | O=C1CC(n2ccc3cc(Cl)ccc32)CC2C3CCCN4CCCC(CN12)C34 (centres unmarked) [3f, 13-(5-chloro-1H-indol-1-yl)-matrine] | 26.7 ± 0.7 | 31.1 | 40.0 | 37.7 | 46.2 | 46.7 | significantly inhibit the cytoplasm-to-nuclear translocation of Smad2/3 | 45.8 | 17.7 | 3.3 ± 0.3 | 8.0 | 
2 | O=C1C=CC[C@@H]2[C@H]3CCCN4CCC[C@@H](CN12)[C@@H]34 [Sophocarpine, reference compound] |  |  |  |  |  |  |  |  |  | 1190 ± 135 | 2.7 | 3160 ± 355
